Results from patent US9108983B2, “Pyrrole compounds, a process for their preparation and pharmaceutical compositions containing them” (LES LABORATOIRES SERVIER, priority 2013, dated 2015).
Where a name gives a salt, the structure may show the parent alone. Read-outs that look alike come from different tables or passages of the source.

Tests used:
[1] = system: RS4;11 leukaemia tumour line; assay: In vitro cytotoxicity (Microculture Tetrazolium Assay); type: cell-based; conditions: RS4;11 cells, exposed for 48 hours, cell viability, read-out: IC50 (nM) MTT RS4;11
Experimental: The cytotoxicity studies were carried out on the RS4;11 leukaemia tumour line.
The cells are distributed onto microplates and exposed to the test compounds for 48 hours.
The cell viability is then quantified by a colorimetric assay, the Microculture Tetrazolium Assay (Cancer Res., 1987, 47, 939-942).

Bcl-2 protein = Bcl-2 protein (histag-Bcl-2, UniProtKB P10415) (Homo sapiens (Human), UniProt P10415); assay: Inhibition of Bcl-2 by the fluorescence polarisation technique; type: binding; conditions: incubation for 2 hours, read-out: IC50 (nM) Bcl-2 FP
Outline: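 Fluorescence polarisation competition: His-tagged Bcl-2 (2.50×10^−8 M final) with fluorescein-labelled peptide (1.00×10^−8 M final) in 10 mM Hepes, 150 mM NaCl, 0.05% Tween20, pH 7.4. Increasing compound concentrations were added. Polarisation was read after 2 h incubation.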

Chain of Bcl-2 protein (P10415 whole entry): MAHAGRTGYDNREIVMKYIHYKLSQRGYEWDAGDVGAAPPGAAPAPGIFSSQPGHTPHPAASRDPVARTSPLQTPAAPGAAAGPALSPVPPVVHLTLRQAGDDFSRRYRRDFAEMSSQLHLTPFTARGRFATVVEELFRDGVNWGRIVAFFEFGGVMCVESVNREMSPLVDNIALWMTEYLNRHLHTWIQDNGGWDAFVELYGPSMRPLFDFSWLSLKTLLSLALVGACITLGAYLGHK

Row | SMILES | IC50 ([1]; Homo sapiens, RS4-11, 48 h) | IC50 (Bcl-2 protein) | IC50 [1]
1 | Cc1c(C(=O)N(C)c2ccc(O)cc2)cc(-c2cc(CNC(=O)COc3ccccc3)ccc2C(=O)N2Cc3ccccc3C[C@H]2C)n1C [Example 53, N-(4-Hydroxyphenyl)-N,1,2-trimethyl-5-(2-{[(3R)-3-methyl-3,4-dihydroisoquinolin-2(1H)-yl]carbonyl}-5-{[(phenoxyacetyl)amino]methyl}phenyl)-1H-pyrrole-3-carboxamide] | 293 nM | 43.5 nM | –
2 | Cc1c(N(C(=O)c2cc(-c3ccccc3C(=O)N3Cc4ccccc4C[C@H]3CN3CCOCC3)n(C)c2C)c2ccc(O)cc2)cc(C#N)n1C [Example 406, N-(5-Cyano-1,2-dimethyl-1H-pyrrol-3-yl)-N-(4-hydroxyphenyl)-1,2-dimethyl-5-(2-{[(3S)-3-(morpholin-4-ylmethyl)-3,4-dihydroisoquinolin-2(1H)-yl]carbonyl}phenyl)-1H-pyrrole-3-carboxamide hydrochloride] | 10.6 nM | 4.2 nM | –
3 | Cc1c(C(=O)N(C)c2ccc(O)cc2)cc(-c2cc(CCNC(=O)Nc3ccccc3)ccc2C(=O)N2Cc3ccccc3C[C@H]2C)n1C [Example 58, N-(4-Hydroxyphenyl)-N,1,2-trimethyl-5-(2-{[(3R)-3-methyl-3,4-dihydroisoquinolin-2(1H)-yl]carbonyl}-5-{2-[(phenylcarbamoyl)amino]ethyl}phenyl)-1H-pyrrole-3-carboxamide] | > 600 nM | 133 nM | –
4 | CCNC(=O)NCc1ccc(-c2cc(C(=O)N(C)c3ccc(O)cc3)c(C)n2C)c(C(=O)N2Cc3ccccc3C[C@H]2C)c1 [Example 36, 5-(4-{[(Ethylcarbamoyl)amino]methyl}-2-{[(3R)-3-methyl-3,4-dihydroisoquinolin-2(1H)-yl]carbonyl}phenyl)-N-(4-hydroxyphenyl)-N,1,2-trimethyl-1H-pyrrole-3-carboxamide] | > 600 nM | 71.4 nM | –
5 | Cc1c(C(=O)N(c2ccc(O)cc2)c2ccc3c(cnn3C)c2)cc(-c2cc3c(cc2C(=O)N2Cc4ccccc4C[C@H]2CN2CCOCC2)OCO3)n1C [Example 14, N-(4-Hydroxyphenyl)-1,2-dlmethyl-N-(1-methyl-1H-indazol-5-yl)-5-(6-{[(3S)-3-(morpholil-4-ylmethyl)-3,4-dihydroisoquinolin-2(1H)-yl]carbonyl}-1,3-benzodioxol-5-yl)-1H-pyrrole-3-carboxamide hydrochloride] | – | 3.7 nM | 8.23 nM
6 | Cc1nn(C)cc1N(C(=O)c1cc(-c2cc(F)ccc2C(=O)N2Cc3ccccc3C[C@H]2CN2CCOCC2)n(C)c1C)c1ccc(O)cc1 [Example 452, N-(1,3-Dimethyl-1H-pyrazol-4-yl)-5-(5-fluoro-2-{[(3S)-3-(morpholin-4-ylmethyl)-3,4-dihydroisoquinolin-2(1H)-yl]carbonyl}phenyl)-N-(4-hydroxyphenyl)-1,2-dimethyl-1H-pyrrole-3-carboxamide hydrochloride] | 112 nM | 8.3 nM | –
7 | Cc1c(C(=O)N(c2ccc(O)cc2)c2cnc3c(ccn3C)c2)cc(-c2cc3c(cc2C(=O)N2Cc4ccccc4C[C@H]2C)OCO3)n1C [Example 42, N-(4-Hydroxyphenyl)-1,2-dimethyl-5-(6-{[(3R)-3-methyl-3,4-dihydroisoquinolin-2(1H)-yl]carbonyl}-1,3-benzodioxol-5-yl)-N-(1-methyl-1H-pyrrolo[2,3-b]pyridin-5-yl)-1H-pyrrole-3-carboxamide] | 4.36 nM | 5.2 nM | –
8 | Cc1c(C(=O)N(c2ccc(O)cc2)c2ccc3c(c2)ncn3C)cc(-c2cc(Cl)ccc2C(=O)N2Cc3ccccc3C[C@H]2CN2CCOCC2)n1C [Example 72, 5-(5-Chloro-2-{[(3S)-3-(morpholin-4-ylmethyl)-3,4-dihydroisoquinolin-2(1H)-yl]carbonyl}phenyl)-N-(4-hydroxyphenyl)-1,2-dimethyl-N-(1-methyl-1H-benzimidazol-5-yl)-1H-pyrrole-3-carboxamide] | 43.6 nM | 7.7 nM | –
9 | COc1ccc(N(C(=O)c2cc(-c3cc(F)ccc3C(=O)N3Cc4ccccc4C[C@H]3CN3CCOCC3)n(C)c2C)c2ccc(O)cc2)cc1C#N [Example 427, N-(3-Cyano-4-methoxyphenyl)-5-(5-fluoro-2-{[(3S)-3-(morpholin-4-ylmethyl)-3,4-dihydroisoquinolin-2(1H)-yl]carbonyl}phenyl)-N-(4-hydroxyphenyl)-1,2-dimethyl-1H-pyrrole-3-carboxamide hydrochloride] | 23.3 nM | 2.2 nM | –
10 | Cc1c(C(=O)N(c2ccc(O)cc2)c2cc3ccn(C)c3cn2)cc(-c2cc(Cl)ccc2C(=O)N2Cc3ccccc3C[C@H]2CN2CCOCC2)n1C [Example 389, 5-(5-Chloro-2-{[(3S)-3-(morpholin-4-ylmethyl)-3,4-dihydroisoquinolin-2(1H)-yl]carbonyl}phenyl)-N-(4-hydroxyphenyl)-1,2-dimethyl-N-(1-methyl-1H-pyrrolo[2,3-c]pyridin-5-yl)-1H-pyrrole-3-carboxamide hydrochloride] | 208 nM | 14.7 nM | –
11 | Cc1c(C(=O)N(c2ccc(O)cc2)c2cnc3c(ccn3C)c2)cc(-c2cc3c(cc2C(=O)N2Cc4ccccc4C[C@H]2CN2CCOCC2)OCO3)n1C [Example 44, N-(4-Hydroxyphenyl)-1,2-dimethyl-N-(1-methyl-1H-pyrrolo[2,3-b]-pyridin-5-yl)-5-(6-{[(3S)-3-(morpholin-4-ylmethyl)-3,4-dihydroisoquinolin-2(1H)-yl]carbonyl}-1,3-benzodioxol-5-yl)-1H-pyrrole-3-carboxamide hydrochloride] | 5.41 nM | 3 nM | –
12 | Cc1c(C(=O)N(c2ccc(O)cc2)c2cnn(C3CC3)c2)cc(-c2cc(F)ccc2C(=O)N2Cc3ccccc3C[C@H]2CN2CCOCC2)n1C [Example 214, N-(1-Cyclopropyl-1H-pyrazol-4-yl)-5-(5-fluoro-2-{[(3S)-3-(morpholin-4-ylmethyl)-3,4-dihydroisoquinolin-2(1H)-yl]carbonyl}phenyl)-N-(4-hydroxyphenyl)-1,2-dimethyl-1H-pyrrole-3-carboxamide hydrochloride] | 236 nM | 6.3 nM | –
13 | Cc1c(C(=O)N(C)c2ccc(O)cc2)cc(-c2cc(CCNC(=O)COc3ccccc3)ccc2C(=O)N2Cc3ccccc3C[C@H]2C)n1C [Example 46, N-(4-Hydroxyphenyl)-N,1,2-trimethyl-5-(2-{[(3R)-3-methyl-3,4-dihydroisoquinolin-2(1H)-yl]carbonyl}-5-{2-[(phenoxyacetyl)amino]ethyl}phenyl)-1H-pyrrole-3-carboxamide] | > 600 nM | 76.6 nM | –
14 | COc1ccc(C(=O)N2Cc3ccccc3C[C@H]2C)c(-c2cc(C(=O)N(c3ccncc3)c3ccc(O)cc3)c(C)n2C)c1 [Example 20, N-(4-Hydroxyphenyl)-5-(5-methoxy-2-{[(3R)-3-methyl-3,4-dihydroisoquinolin-2(1H)-yl]carbonyl}phenyl)-1,2-dimethyl-N-(pyridin-4-yl)-1H-pyrrole-3-carboxamide hydrochloride] | 164 nM | 4.9 nM | –
15 | Cc1c(C(=O)N(c2ccc(O)cc2)c2cnc3c(c2)CCN3C)cc(-c2cc(Cl)ccc2C(=O)N2Cc3ccccc3C[C@H]2CCCN2CCOCC2)n1C [Example 394, 5-(5-Chloro-2-{[(3R)-3-[3-(morpholin-4-yl)propyl]-3,4-dihydroisoquinolin-2(1H)-yl]carbonyl}phenyl)-N-(4-hydroxyphenyl)-1,2-dimethyl-N-(1-methyl-2,3-dihydro-1H-pyrrolo[2,3-b]pyridin-5-yl)-1H-pyrrole-3-carboxamide] | 2.76 nM | 2.5 nM | –
